{
  "source": "patent US10603384B2",
  "about": "“Pharmaceutical composition containing an antivirally active dihydroquinazoline derivative” (AICURIS GMBH & CO. KG, priority 2012, dated 2020)",
  "test_system": "HCMV AD 169 RV-HG",
  "experiment": "HCMV fluorescence-reduction test (GFP-RA)",
  "assay_type": "cell-based, human cytomegalovirus",
  "conditions": "Human betaherpesvirus 5, AD169, NHDF, 168 h, read-out: EC50 (GFP-RA)",
  "excerpt": "The in vitro effects of the compositions according to the present invention on the replication of the HCMV (human cytomegalovirus) can be seen in the following antiviral assay:\nThe solution from Example 8 is used without further dilution in the test. The composition from Example 6A is used as a 50-millimolar (mM) solution in dimethyl sulphoxide (DMSO). Ganciclovir®, Foscarnet® or Cidofovir® can be used as reference compositions. One day before the beginning of the test, 1.5×10^4 human foreskin fibroblasts (NHDF cells)/well are seeded in 200 μl of cell culture medium in Wells B2-G11 of 96-well plates (black with transparent floor). The wells along the edges of each 96-well plate are filled with 200 μl of medium only in order to prevent edge effects. […] The virus used is a recombinant HCMV which has integrated an expression cassette for green fluorescence protein (GFP) in the virus genome (HCMV AD 169 RV-HG [E. M. Borst, K. Wagner, A. Binz, B. Sodeik, and M. Messerle, 2008, J. Virol. 82:2065-2078.]). […] The GFP intensity of each well in a 96-well plate is then determined using a fluorescence scanner (FluoBox; Bayer Technology Services GmbH; filter settings: GFP, Ex 480 nm, Em 520 nm). The measured values thus obtained can be used to determine the EC50 of an anti-HCMV: […]",
  "data": [
    {"smiles": "COc1cccc(N2CCN(C3=Nc4c(F)cccc4[C@H](CC(=O)O)N3c3cc(C(F)(F)F)ccc3OC)CC2)c1", "note": "[Example 6A, (S)-{8-fluoro-2-[4-(3-methoxyphenyl)piperazine-1-yl]-3-(2-methoxy-5-trifluoromethylphenyl)-3,4-dihydroquinazoline-4-yl}acetic acid]", "values": [
      {"measurement": "EC50", "result": "2.2 ± 0.2", "unit": "nM"}
    ]},
    {"smiles": "Nc1nc(O)c2ncn(COC(CO)CO)c2n1", "note": "[Ganciclovir]", "values": [
      {"measurement": "EC50", "result": "2500 ± 400", "unit": "nM"}
    ]}
  ]
}
